The values that follow come from patent US7241863B2, “Human metabotropic glutamate receptor” (NPS Pharmaceuticals, Inc., priority 2003, dated 2007).

What all share (type): cell-based
The target of one assay is T1, human mGluR5d receptor (Homo sapiens, UniProt P41594).
T1 construct: expressed in transfected cells; host or cells: Xenopus laevis oocytes injected with cRNA transcribed from phmGluR5d(Hyg+)
The assay can be described thus: Xenopus oocyte expression assay, calcium-activated chloride current. Conditions: for desensitization of evoked calcium-activated chloride currents: repeated application of 10-100 μM, Xenopus oocytes expressing hmGluR5d. Here is the method: This example describes the activation of the novel hmGluRSd splice variant using a Xenopus oocyte expression assay. PhmGluR5d(Hyg+) DNA was linearized by restriction enzyme digestion, and capped sense-strand cRNA was synthesized by T7 RNA polymerase transcription (Ambion Message Machine Kit). In vitro-transcribed RNA was concentrated by ethanol precipitation and the size and integrity of the RNA was assessed on a denaturing agarose gel.
In vitro-transcribed RNA (˜10 ng) encoding the human mGluR5d receptor was injected into Xenopus Oocytes. Following injection, oocytes were incubated at 16° C. in MBS containing 1 mM CaCl2 for 2 to 7 days prior to electrophysiological recording. Following the incubation, the oocytes were voltage-clamped using standard electrophysiological techniques. […] Activation of the hmGluR5d receptor was detected by increases in the calcium-activated chloride current.
Test substances were applied by superfusion at a flow rate of about 5 ml/min. Receptor activation was determined by measuring the increase in calcium-activated chloride current (ICl) Increases in ICl were quantified by measuring the peak inward current stimulated by activating agent, relative to the holding current at […].

The target of the next assay is T2, hmGluR5d receptor (Homo sapiens, UniProt P41594).
T2 construct: The full-length human mGluR5d was then subcloned into the mammalian expression vector pcDNA3.1/Hygro(+) vector; expressed in transfected cells; host or cells: HEK293 cells (ATCC CRL 1573) transfected with phmGluR5d(Hyg+)
The assay can be described thus: Increases in intracellular calcium (Fluo3-AM, FLIPR) in transfected HEK293 cells. Conditions: hmGluR5d expressed in HEK293 cells, FIG. 4.

Assay [1] addresses T3, hCaR/hmGluR5d chimeric receptor (Homo sapiens, UniProt P41180).
T3 construct: expressed in transfected cells; host or cells: HEK293 cells (ATCC CRL 1573) stably transfected with phCaR/hmGluR5d(Hyg+)
The assay can be described thus: Increases in intracellular calcium (Fluo3-AM, FLIPR) in HEK293 cells expressing the chimeric receptor. Particulars: hCaR/hmGluR5d expressed in HEK293 cells, FIG. 5. As for the experimental part: This example provides a method for the production of stably transfected mammalian cell lines expressing the chimeric receptor hCaR/hmGluR5d, but is not meant to be limiting. Human embryonic kidney cells (293, ATCC, CRL 1573) are grown in a routine manner. Cells are plated in 10 cm cell-culture plates in Dulbecco's modified Eagle's medium (D-MEM) containing 10% fetal bovine serum (FBS) and 1×penicillin-streptomycin (Life Technologies) so that they are approximately 70% confluent after an overnight incubation. To prepare DNA for transfection, the plasmid phCaR/hmGluR5d(Hyg+) is precipitated with ethanol, rinsed and resuspended in sterile water at a concentration of 1 μg/μl. Ten micrograms of the plasmid DNA is incubated with the liposome formulation LipofectAMINE™ (Life Technologies) for 20 minutes in 1.6 mls of serum-free Opti-MEM (Life Technologies). […] Expression can also be assessed by Western blot analysis using the commercially available antibody Anti-Rat mGluR5, polyclonal (Upstate Biotechnology).
The chimeric receptor, hCaR/hmGluR5d, also mediates the stimulation of inositol phosphate (IP)/Ca^2+ signal transduction. […] After an additional 24 hour incubation, cells are loaded with the calcium indicator dye Fluo3-AM and increases in intracellular calcium in response to calcium are measured using an automated fluorescent imaging plate reader (FLIPR). […]
For orientation: A change in cytosolic calcium serves as a functional read-out for many receptors and channels.

T1 sequence (P41594 21-942 isoform P41594-3): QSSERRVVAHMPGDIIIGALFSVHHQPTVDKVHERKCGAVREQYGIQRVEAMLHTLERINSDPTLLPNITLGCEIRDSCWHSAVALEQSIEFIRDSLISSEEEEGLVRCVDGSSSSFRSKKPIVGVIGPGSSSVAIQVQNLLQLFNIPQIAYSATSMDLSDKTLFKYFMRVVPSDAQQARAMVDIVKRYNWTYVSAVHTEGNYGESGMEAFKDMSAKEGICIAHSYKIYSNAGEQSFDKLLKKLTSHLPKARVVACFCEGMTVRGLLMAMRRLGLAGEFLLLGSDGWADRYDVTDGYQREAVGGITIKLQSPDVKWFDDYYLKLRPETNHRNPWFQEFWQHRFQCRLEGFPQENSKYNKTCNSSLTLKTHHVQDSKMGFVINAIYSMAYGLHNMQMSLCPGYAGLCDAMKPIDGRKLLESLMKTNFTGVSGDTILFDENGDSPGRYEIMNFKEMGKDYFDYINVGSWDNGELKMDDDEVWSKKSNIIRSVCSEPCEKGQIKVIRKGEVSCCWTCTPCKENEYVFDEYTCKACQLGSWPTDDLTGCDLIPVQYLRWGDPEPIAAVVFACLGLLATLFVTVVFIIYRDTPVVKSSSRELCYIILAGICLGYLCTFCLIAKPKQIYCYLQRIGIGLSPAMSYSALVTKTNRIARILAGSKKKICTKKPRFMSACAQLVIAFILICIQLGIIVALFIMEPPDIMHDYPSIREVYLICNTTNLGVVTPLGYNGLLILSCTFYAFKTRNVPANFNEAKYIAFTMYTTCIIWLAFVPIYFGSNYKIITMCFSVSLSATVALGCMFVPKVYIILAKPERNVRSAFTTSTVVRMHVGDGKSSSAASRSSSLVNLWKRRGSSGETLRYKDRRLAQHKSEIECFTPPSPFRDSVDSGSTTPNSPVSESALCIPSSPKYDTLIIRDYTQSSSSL
T3 sequence (P41180 with tags, fused parts or gaps): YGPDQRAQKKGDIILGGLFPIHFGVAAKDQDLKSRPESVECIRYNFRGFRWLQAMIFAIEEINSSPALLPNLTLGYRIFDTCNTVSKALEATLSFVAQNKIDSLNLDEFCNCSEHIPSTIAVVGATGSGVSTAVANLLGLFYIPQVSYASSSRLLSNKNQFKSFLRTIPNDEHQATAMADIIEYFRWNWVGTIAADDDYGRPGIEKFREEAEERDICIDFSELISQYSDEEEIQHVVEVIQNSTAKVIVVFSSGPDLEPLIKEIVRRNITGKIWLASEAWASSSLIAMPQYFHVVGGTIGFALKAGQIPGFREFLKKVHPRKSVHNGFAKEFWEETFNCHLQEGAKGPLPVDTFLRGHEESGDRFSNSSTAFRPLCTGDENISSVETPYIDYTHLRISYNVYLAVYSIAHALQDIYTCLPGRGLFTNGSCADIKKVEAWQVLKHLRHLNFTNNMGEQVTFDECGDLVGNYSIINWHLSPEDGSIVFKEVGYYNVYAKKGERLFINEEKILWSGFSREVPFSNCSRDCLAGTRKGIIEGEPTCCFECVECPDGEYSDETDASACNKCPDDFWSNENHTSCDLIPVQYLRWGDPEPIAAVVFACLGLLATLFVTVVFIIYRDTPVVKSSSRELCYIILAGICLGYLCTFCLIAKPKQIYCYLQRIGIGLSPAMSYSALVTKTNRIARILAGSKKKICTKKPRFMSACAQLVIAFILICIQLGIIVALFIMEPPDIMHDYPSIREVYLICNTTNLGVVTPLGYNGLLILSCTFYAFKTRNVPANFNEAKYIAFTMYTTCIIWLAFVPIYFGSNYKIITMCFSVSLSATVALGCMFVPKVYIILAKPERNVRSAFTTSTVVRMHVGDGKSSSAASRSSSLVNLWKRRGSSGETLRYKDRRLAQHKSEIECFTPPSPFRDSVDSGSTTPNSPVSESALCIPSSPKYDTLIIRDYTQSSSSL
T2 sequence (P41594 21-942 isoform P41594-3): as the sequence (P41594 21-942 isoform P41594-3) above
Protocol for hmGluR5d receptor: Human embryonic kidney cells (293, ATCC, CRL 1573) are grown in a routine manner. Cells are plated in 10 cm cell-culture plates in Dulbecco's modified Eagle's medium (D-MEM) containing 10% fetal bovine serum (FBS) and 1× penicillin-streptomycin (Life Technologies) so that they are approximately 70% confluent after an overnight incubation. To prepare DNA for transfection, the plasmid phmGluR5d(Hyg+) is precipitated with ethanol, rinsed and resuspended in sterile water at a concentration of 1 μg/μl. Ten micrograms of the plasmid DNA is incubated with the liposome formulation LipofectAMINE™ (Life Technologies) for 20 minutes in 1.6 mls of serum-free Opti-MEM (Life Technologies). After the room temperature incubation, 6.4 mls of Opti-MEM is added to the transfection mix. This solution is added to the cells which have been rinsed twice with 8 ml washes of Opti-MEM. The cells and transfection mix are incubated at 37° C. for 5 hours, at which time 8 mls of Opti-MEM/20% FBS is added to bring the FBS concentration to 10%. […] Expression of the novel human mGluR5d splice variant of the present invention in clonal cell lines or pools can be assessed by Northern blot analysis of human mGluR5d mRNA or functionally as in the above experiments by assessing increases in intracellular calcium in response to mGluR5 agonists. […]

On to `N[C@H](C(=O)O)c1cc(O)cc(O)c1` [DHPG, (S)-3,5-dihydroxyphenylglycine], for which, at human mGluR5d receptor, the “desensitization of evoked calcium-activated chloride currents” value is “only minimally desensitized”. For the same compound, the “functional activation of the receptor (agonist)” value on hmGluR5d receptor is reported as “functional activation”. Regarding `N[C@@H](CCC(=O)O)C(=O)O` [L-glutamate], the “increase in calcium-activated chloride current (receptor activation)” value at human mGluR5d receptor (100 μM, applied by superfusion, voltage-clamped Xenopus oocytes expressing hmGluR5d) was “reversible, oscillatory increases in the calcium-activated chloride current”. The “desensitization of evoked calcium-activated chloride currents” value at human mGluR5d receptor is “only minimally desensitized”.

On to calcium, for which the “functional activation of the chimeric receptor (agonist)” value in assay [1] was “functional activation”.
